Test results reported in patent US9856279B2 (AGIOS PHARMACEUTICALS, INC, priority 2011, dated 2018).

These compounds were tested against IDH1 R132H (Homo sapiens, UniProt O75874, R132H) (assay: Assay for IDH1 R132H inhibitors (NADPH/aKG, resazurin detection)). Conditions: enzyme assay of Example 12; read-out: IDH1R132H IC50.
Format: biochemical
Procedure, shortened: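 Compound added to substrate mix (8 uM NADPH, 2 mM aKG), then enzyme mix (0.2 μg/ml IDH1 R132H); 50 min RT in 20 mM Tris pH 7.5, 150 mM NaCl, 10 mM MgCl2, 0.03% BSA. Resazurin detection mix (30 μM) 5 min RT; resorufin fluorescence Ex544/Em590.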

Sequence of IDH1 R132H (O75874 whole entry R132H): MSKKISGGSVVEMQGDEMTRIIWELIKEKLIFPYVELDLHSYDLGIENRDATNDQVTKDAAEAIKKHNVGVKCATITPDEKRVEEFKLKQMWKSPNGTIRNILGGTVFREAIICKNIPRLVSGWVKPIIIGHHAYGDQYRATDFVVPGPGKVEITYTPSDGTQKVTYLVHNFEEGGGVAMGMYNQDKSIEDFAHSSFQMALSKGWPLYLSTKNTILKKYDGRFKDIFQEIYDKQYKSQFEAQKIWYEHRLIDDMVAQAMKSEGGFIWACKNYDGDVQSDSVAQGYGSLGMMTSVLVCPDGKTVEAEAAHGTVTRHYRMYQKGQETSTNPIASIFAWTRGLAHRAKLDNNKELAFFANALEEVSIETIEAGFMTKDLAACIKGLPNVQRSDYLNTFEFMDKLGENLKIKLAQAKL

Compound | IC50 [nM]
C[C@@H]1CN(c2nc(C3CC3)c(-c3cccc4cnccc34)cc2C#N)CCN1C(=O)[C@@H]1C[C@H]1CO [Compound 505, 6-cyclopropyl-2-((R)-4-((1R,2R)-2-(hydroxymethyl)cyclopropanecarbonyl)-3-methylpiperazin-1-yl)-5-(isoquinolin-5-yl)nicotinonitrile] | < 500
CN(C)c1nccc(-c2cc(C#N)c(N3CCN(C(=O)C4CC4)[C@H](C4CC4)C3)nc2C2CC2)n1 [Compound 506, (R)-2-(4-(cyclopropanecarbonyl)-3-cyclopropylpiperazin-1-yl)-6-cyclopropyl-5-(2-(dimethylamino)pyrimidin-4-yl)nicotinonitrile] | 500 to 1000
N#Cc1cc(-c2ccnc(N)n2)c(C2CC2)nc1N1CCN(C(=O)C2CC2)[C@H](C2CC2)C1 [Compound 507, (R)-5-(2-aminopyrimidin-4-yl)-2-(4-(cyclopropanecarbonyl)-3-cyclopropylpiperazin-1-yl)-6-cyclopropylnicotinonitrile] | 500 to 1000
N#Cc1cc(-c2ccnc(Cl)c2F)c(C2CC2)nc1N1CCN(C(=O)C2CC2)[C@H](C2CC2)C1 [Compound 509, (R)-2′-chloro-6-(4-(cyclopropanecarbonyl)-3-cyclopropylpiperazin-1-yl)-2-cyclopropyl-3′-fluoro-3,4′-bipyridine-5-carbonitrile] | 500 to 1000
CSCn1cc(-c2cc(C#N)c(N3CCN(C(=O)C4CC4)[C@H](C4CC4)C3)nc2C2CC2)cn1 [Compound 510, (R)-2-(4-(cyclopropanecarbonyl)-3-cyclopropylpiperazin-1-yl)-6-cyclopropyl-5-(1-((methylthio)methyl)-1H-pyrazol-4-yl)nicotinonitrile] | 500 to 1000
N#Cc1cc(-c2ccnc(NCCO)n2)c(C2CC2)nc1N1CCN(C(=O)C2CC2)[C@H](C2CC2)C1 [Compound 512, (R)-2-(4-(cyclopropanecarbonyl)-3-cyclopropylpiperazin-1-yl)-6-cyclopropyl-5-(2-(2-hydroxyethylamino)pyrimidin-4-yl)nicotinonitrile] | < 500
N#Cc1cc(-c2cccc3c2NC(=O)C3=O)c(C2CC2)nc1N1CCN(C(=O)C2CC2)[C@H](C2CC2)C1 [Compound 513, (R)-2-(4-(cyclopropanecarbonyl)-3-cyclopropylpiperazin-1-yl)-6-cyclopropyl-5-(2,3-dioxoindolin-7-yl)nicotinonitrile] | 500 to 1000
N#Cc1cc(-c2cccc3cnccc23)c(C2CC2)nc1N1CCN(C(=O)CCC=O)[C@H](C2CC2)C1 [Compound 519, (R)-6-cyclopropyl-2-(3-cyclopropyl-4-(4-oxobutanoyl)piperazin-1-yl)-5-(isoquinolin-5-yl)nicotinonitrile] | 500 to 1000
CN(C)c1nccc(-c2cc(C#N)c(N3CCN(C(=O)CC(F)(F)F)[C@H](C4CC4)C3)nc2C2CC2)n1 [Compound 521, (R)-6-cyclopropyl-2-(3-cyclopropyl-4-(3,3,3-trifluoropropanoyl)piperazin-1-yl)-5-(2-(dimethylamino)pyrimidin-4-yl)nicotinonitrile] | < 500
Cc1cc(-c2cc(C#N)c(N3CCN(C(=O)C4CC4)[C@H](C4CC4)C3)nc2C2CC2)ccn1 [Compound 523, (R)-6-(4-(cyclopropanecarbonyl)-3-cyclopropylpiperazin-1-yl)-2-cyclopropyl-2′-methyl-3,4′-bipyridine-5-carbonitrile] | 500 to 1000
N#Cc1cc(-c2cccnc2)c(C2CC2)nc1N1CCN(C(=O)CC(F)(F)F)[C@H](C2CC2)C1 [Compound 524, (R)-2-cyclopropyl-6-(3-cyclopropyl-4-(3,3,3-trifluoropropanoyl)piperazin-1-yl)-[3,3′-bipyridine]-5-carbonitrile] | < 500
N#Cc1cncc(-c2cc(C#N)c(N3CCN(C(=O)CC(F)(F)F)[C@H](C4CC4)C3)nc2C2CC2)c1 [Compound 525, (R)-2-cyclopropyl-6-(3-cyclopropyl-4-(3,3,3-trifluoropropanoyl)piperazin-1-yl)-[3,3′-bipyridine]-5,5′-dicarbonitrile] | < 500
N#Cc1cc(-c2cccc3nccnc23)c(C2CC2)nc1N1CCN(C(=O)C2CC2)[C@H](C2CC2)C1 [Compound 531, (R)-2-(4-(cyclopropanecarbonyl)-3-cyclopropylpiperazin-1-yl)-6-cyclopropyl-5-(quinoxalin-5-yl)nicotinonitrile] | < 500
N#Cc1cc(-c2cccc3nccnc23)c(C2CC2)nc1N1CCN(C(=O)CC(F)(F)F)[C@H](C2CC2)C1 [Compound 532, (R)-6-cyclopropyl-2-(3-cyclopropyl-4-(3,3,3-trifluoropropanoyl)piperazin-1-yl)-5-(quinoxalin-5-yl)nicotinonitrile] | < 500
N#Cc1cc(-c2ccnc(N)n2)c(C2CC2)nc1N1CCN(C(=O)CC(F)(F)F)[C@H](C2CC2)C1 [Compound 534] | < 500
N#Cc1cc(-c2cccc3nc(N)ncc23)c(C2CC2)nc1N1CCN(C(=O)C2CC2)[C@H](C2CC2)C1 [Compound 538, (R)-5-(2-aminoquinazolin-5-yl)-2-(4-(cyclopropanecarbonyl)-3-cyclopropylpiperazin-1-yl)-6-cyclopropylnicotinonitrile] | < 500

Compound | IC50 [nM]
N#Cc1cc(-c2cncc(C(N)=O)c2)c(C2CC2)nc1N1CCN(C(=O)CC(F)(F)F)[C@H](C2CC2)C1 [Compound 540, (R)-5′-cyano-2′-cyclopropyl-6′-(3-cyclopropyl-4-(3,3,3-trifluoropropanoyl)piperazin-1-yl)-[3,3′-bipyridine]-5-carboxamide] | < 500
N#Cc1cc(-c2cc(Cl)nc3ccccc23)c(C2CC2)nc1N1CCN(C(=O)C2CC2)[C@H](C2CC2)C1 [Compound 543, (R)-5-(2-chloroquinolin-4-yl)-2-(4-(cyclopropanecarbonyl)-3-cyclopropylpiperazin-1-yl)-6-cyclopropylnicotinonitrile] | 500 to 1000
CCO[C@H]1C[C@@H]1C(=O)N1CCN(c2nc(C3CC3)c(-c3ccc(F)cc3)cc2C#N)C[C@H]1C1CC1 [Compound 548, 6-cyclopropyl-2-((R)-3-cyclopropyl-4-((1S,2S)-2-ethoxycyclopropanecarbonyl)piperazin-1-yl)-5-(4-fluorophenyl)nicotinonitrile] | 500 to 1000
N#Cc1cc(-c2cccc3nc(Cl)ccc23)c(C2CC2)nc1N1CCN(C(=O)C2CC2)[C@H](C2CC2)C1 [Compound 549, (R)-5-(2-chloroquinolin-5-yl)-2-(4-(cyclopropanecarbonyl)-3-cyclopropylpiperazin-1-yl)-6-cyclopropylnicotinonitrile] | < 500
N#Cc1cc(-c2ccc3[nH]ncc3c2)c(C2CC2)nc1N1CCN(C(=O)CC(F)(F)F)[C@H](C2CC2)C1 [Compound 552] | < 500
N#Cc1cc(-c2cncc(-c3nnn[nH]3)c2)c(C2CC2)nc1N1CCN(C(=O)C2CC2)[C@H](C2CC2)C1 [Compound 554, (R)-6-(4-(cyclopropanecarbonyl)-3-cyclopropylpiperazin-1-yl)-2-cyclopropyl-5′-(1H-tetrazol-5-yl)-[3,3′-bipyridine]-5-carbonitrile] | < 500
C[C@@H]1CN(c2nc(C3CC3)c(-c3cccc4cnccc34)cc2C#N)CCN1C(=O)C1CC1 [Compound 556, (R)-2-(4-(cyclopropanecarbonyl)-3-methylpiperazin-1-yl)-6-cyclopropyl-5-(isoquinolin-5-yl)nicotinonitrile] | < 500
CCO[C@H]1C[C@H]1C(=O)N1CCN(c2nc(C3CC3)c(-c3ccc(F)cc3)cc2C#N)C[C@H]1C1CC1 [Compound 564, 6-cyclopropyl-2-((R)-3-cyclopropyl-4-((1R,2S)-2-ethoxycyclopropanecarbonyl)piperazin-1-yl)-5-(4-fluorophenyl)nicotinonitrile] | < 500
N#Cc1cc(-c2ccc(C(F)(F)F)nc2)c(C2CC2)nc1N1CCN(C(=O)C2CC2)[C@H](C2CC2)C1 [Compound 567, (R)-6-(4-(cyclopropanecarbonyl)-3-cyclopropylpiperazin-1-yl)-2-cyclopropyl-6′-(trifluoromethyl)-[3,3′-bipyridine]-5-carbonitrile] | 500 to 1000
C[C@@H]1CN(c2nc(C3CC3)c(-c3ccc(C#N)nc3)cc2C#N)CCN1C(=O)C1CC1 [Compound 583, (R)-6-(4-(cyclopropanecarbonyl)-3-methylpiperazin-1-yl)-2-cyclopropyl-3,3′-bipyridine-5,6′-dicarbonitrile] | 500 to 1000
COCCC(=O)N1CCN(c2nc(C3CC3)c(-c3ccc(C#N)nc3)cc2C#N)C[C@H]1C [Compound 584, (R)-2-cyclopropyl-6-(4-(3-methoxypropanoyl)-3-methylpiperazin-1-yl)-3,3′-bipyridine-5,6′-dicarbonitrile] | 500 to 1000
COCCC(=O)N1CCN(c2nc(C3CC3)c(-c3cc(Cl)nc(Cl)c3)cc2C#N)C[C@H]1C [Compound 586, (R)-2′,6′-dichloro-2-cyclopropyl-6-(4-(3-methoxypropanoyl)-3-methylpiperazin-1-yl)-[3,4′-bipyridine]-5-carbonitrile] | < 500
C#Cc1cc(-c2cc(C#N)c(N3CCN(C(=O)C4CC4)[C@H](C)C3)nc2C2CC2)ccn1 [Compound 593, (R)-6-(4-(cyclopropanecarbonyl)-3-methylpiperazin-1-yl)-2-cyclopropyl-2′-ethynyl-3,4′-bipyridine-5-carbonitrile] | 500 to 1000
C=Cc1nc(-c2cc(C#N)c(N3CCN(C(=O)CCOC)[C@H](C)C3)nc2C2CC2)ncc1F [Compound 601, (R)-6-cyclopropyl-5-(5-fluoro-4-vinylpyrimidin-2-yl)-2-(4-(3-methoxypropanoyl)-3-methylpiperazin-1-yl)nicotinonitrile] | < 500
COCCC(=O)N1CCN(c2nc(C3CC3)c(-c3cnnc(OS(=O)(=O)C(F)(F)F)c3)cc2C#N)C[C@H]1C [Compound 614, (R)-5-(5-cyano-2-cyclopropyl-6-(4-(3-methoxypropanoyl)-3-methylpiperazin-1-yl)pyridin-3-yl)pyridazin-3-yl trifluoromethanesulfonate] | < 500
